Where two headings read alike, the source gives them in different places.

What all share (type): in vivo
In assay [1] the test system is Beet Armyworm (Spodoptera exigua, LAPHEG). Nature of the assay: Bioassays on Beet Armyworm (BAW), 128-well diet tray assay. Conditions: Spodoptera exigua. An outline of the steps:
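Eight diet wells per compound were treated at 50 μg/cm^2 (acetone-water 90:10), dried, then infested with 1–5 second-instar larvae each. After five to seven days at 25 °C under 14:10 photoperiod, mortality was scored and averaged across wells.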

The subject of assay [2] is Cabbage Looper (Trichoplusia ni, TRIPNI). The experiment in a line: Bioassays on Cabbage Looper (CL), 128-well diet tray assay. Conditions: Trichoplusia ni. An outline of the steps:
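One to five second-instar larvae per well on artificial diet surface-treated with 50 μg/cm^2 test molecule (applied in 90:10 acetone-water, dried). Held 5–7 days at 25° C, 14:10 light-dark; percent mortality recorded per well and averaged over eight wells.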

The test system of assay [3] is Yellow Fever Mosquito (Aedes aegypti, AEDSAE). Conditions: for YFM: Table ABC: Biological Results, species YFM; for YFM rating: Yellow Fever Mosquito, Table ABC / ABC-DP rating. An outline of the steps:
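Larvae ~1 day old, in liver powder/water; compound from 4000 ppm DMSO stock diluted with water/acetone (90:10); 6 reps; lidded, RT, 3 d; mortality scored per well, rated.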

The mark [4] stands for this setting: Table ABC: Biological Results, species BAW, read-out: BAW.
[5] abbreviates: Table ABC: Biological Results, species CL, read-out: CL.
The mark [6] stands for this setting: Beet Armyworm, Table ABC / ABC-DP rating, read-out: BAW rating.
The mark [7] stands for this setting: Cabbage Looper, Table ABC / ABC-DP rating, read-out: CL rating.

Take `CC(=O)Nc1ccc(NC(=O)c2cc(NC(=O)[C@H]3[C@H](c4ccc(F)c(Cl)c4)C3(Cl)Cl)cc(Cl)c2C)cc1` (relative stereo) [F1191, trans-N-(4-Acetamidophenyl)-3-chloro-5-(2,2-dichloro-3-(3-chloro-4-fluorophenyl)cyclopropane-1-carboxamido)-2-methylbenzamide]: the pest or weed control at 50 µg/cm2 in assay [1] (setting [4]) and in assay [2] (setting [5]) was 50 to 100% each time. For the same compound, the YFM entry in assay [3] is on record as “A (80–100)”.

In the case of `O=C(Nc1ccc(F)c(NC(=O)C(F)(F)Br)c1F)c1cc(NC(=O)[C@H]2[C@H](c3ccc(F)c(C(F)(F)F)c3)C2(Cl)Cl)ccc1Cl` [F1276, N-(3-(2-Bromo-2,2-difluoroacetamido)-2,4-difluorophenyl)-2-chloro-5-((1R,3R)-2,2-dichloro-3-(4-fluoro-3-(trifluoromethyl)phenyl)cyclopropane-1-carboxamido)benzamide], the pest or weed control at 50 µg/cm2 in assay [1] (setting [4]) and in assay [2] (setting [5]) was 50 to 100% in each case. In addition, the YFM entry in assay [3] was “A (80–100)”.

As for `O=C(Nc1ccc(F)cc1F)c1cc(NC(=O)[C@H]2[C@@H](c3cc(F)c(Cl)c(Cl)c3)C2(Cl)Cl)ccc1Cl` (relative stereo) [F1025, cis-2-Chloro-5-(2,2-dichloro-3-(3,4-dichloro-5-fluorophenyl)cyclopropane-1-carboxamido)-N-(2,4-difluorophenyl)benzamide], the pest or weed control at 50 µg/cm2 in assay [1] (setting [4]) and in assay [2] (setting [5]) was 50 to 100% each time. Further, the YFM entry in assay [3] is “A (80–100)”.

Regarding `O=C(Nc1ccc(F)c(NC(=O)C2(F)OC(F)(F)C(F)(F)C2(F)F)c1F)c1cc(NC(=O)[C@H]2[C@H](c3ccc(F)c(C(F)(F)F)c3)C2(Cl)Cl)ccc1Cl` (stereo partly drawn) [F1782, N-(3-(2-Chloro-5-((1R,3R)-2,2-dichloro-3-(4-fluoro-3-(trifluoromethyl)phenyl)cyclopropane-1-carboxamido)benzamido)-2,6-difluorophenyl)-2,3,3,4,4,5,5-heptafluorotetrahydrofuran-2-carboxamide], the pest or weed control at 50 µg/cm2 in assay [1] (setting [6]) and in assay [2] (setting [7]) was 50 to 100% each time. For the same compound, the YFM rating result in assay [3] was “A (80–100)”.

With `O=C(Nc1ccc(F)c(NC(=O)C(F)(F)F)c1F)c1cc(NC(=O)[C@H]2[C@H](c3ccc(F)c(C(F)(F)F)c3)C2(Cl)Cl)ccc1Cl` [F1169, 2-chloro-5-((1R,3R)-2,2-dichloro-3-(4-fluoro-3-(trifluoromethyl)phenyl)cyclopropane-1-carboxamido)-N-(2,4-difluoro-3-(2,2,2-trifluoroacetamido)phenyl)benzamide], the pest or weed control at 50 µg/cm2 in assay [1] (setting [4]) and in assay [2] (setting [5]) was 50 to 100% in each case. Also, the YFM result in assay [3] was “A (80–100)”.

`CC(=O)NNC(=O)c1cc(NC(=O)[C@H]2[C@H](c3cc(Cl)cc(Cl)c3)C2(Cl)Cl)ccc1Cl` (relative stereo) [F2514, trans-N-(3-(2-acetylhydrazine-1-carbonyl)-4-chlorophenyl)-2,2-dichloro-3-(3,5-dichlorophenyl)cyclopropane-1-carboxamide]: the pest or weed control at 50 µg/cm2 in assay [1] (setting [6]) and in assay [2] (setting [7]) was 50 to 100% in each case. Moreover, the YFM rating entry in assay [3] is “A (80–100)”.

Turning to `CC(Br)CC(=O)Nc1c(F)ccc(NC(=O)c2cc(NC(=O)[C@H]3[C@H](c4ccc(F)c(C(F)(F)F)c4)C3(Cl)Cl)ccc2Cl)c1F` (stereo partly drawn) [F1853, N-(3-(3-Bromobutanamido)-2,4-difluorophenyl)-2-chloro-5-((1R,3R)-2,2-dichloro-3-(4-fluoro-3-(trifluoromethyl)phenyl)cyclopropane-1-carboxamido)benzamide], the pest or weed control at 50 µg/cm2 in assay [1] (setting [6]) and in assay [2] (setting [7]) was 50 to 100% each time. The YFM rating result in assay [3] is on record as “A (80–100)”.

As for `CN(C(=O)C(F)F)c1c(F)ccc(NC(=O)c2cc(NC(=O)[C@H]3[C@H](c4ccc(Cl)c(Cl)c4)C3(Cl)Cl)ccc2Cl)c1F` [F1271, 2-Chloro-5-((1R,3R)-2,2-dichloro-3-(3,4-dichlorophenyl)cyclopropane-1-carboxamido)-N-(3-(2,2-difluoro-N-methylacetamido)-2,4-difluorophenyl)benzamide], the pest or weed control at 50 µg/cm2 in assay [1] (setting [4]) and in assay [2] (setting [5]) was 50 to 100% throughout. Also, the YFM entry in assay [3] was “A (80–100)”.

Regarding `Nc1c(F)ccc(NC(=O)c2cc(NC(=O)[C@H]3[C@H](c4ccc(S(F)(F)(F)(F)F)cc4)C3(Cl)Cl)ccc2Cl)c1F` (relative stereo) [F1142, trans-N-(3-Amino-2,4-difluorophenyl)-2-chloro-5-(2,2-dichloro-3-(4-(pentafluoro-λ^6-sulfanyl)phenyl)cyclopropane-1-carboxamido)benzamide], the pest or weed control at 50 µg/cm2 in assay [1] (setting [4]) and in assay [2] (setting [5]) was 50 to 100% in each case. In addition, the YFM entry in assay [3] is recorded as “A (80–100)”.

On to `Cc1cc(NCc2ccc(C#N)cc2)ccc1NC(=O)c1cc(NC(=O)[C@H]2[C@H](c3cc(Cl)cc(Cl)c3)C2(Cl)Cl)ccc1Cl` (relative stereo) [F1040, trans-2-Chloro-N-(4-((4-cyanobenzyl)amino)-2-methylphenyl)-5-(2,2-dichloro-3-(3,5-dichlorophenyl)cyclopropane-1-carboxamido)benzamide], for which the pest or weed control at 50 µg/cm2 in assay [1] (setting [4]) and in assay [2] (setting [5]) was 50 to 100% each time. In addition, the YFM entry in assay [3] was “A (80–100)”.

Take `O=C(NNc1cc(F)ccc1F)c1cc(NC(=O)[C@H]2[C@H](c3cc(Cl)cc(Cl)c3)C2(Cl)Cl)ccc1Cl` (relative stereo) [F2558, trans-2,2-Dichloro-N-(4-chloro-3-(2-(2,5-difluorophenyl)hydrazine-1-carbonyl)phenyl)-3-(3,5-dichlorophenyl)cyclopropane-1-carboxamide]: the pest or weed control at 50 µg/cm2 in assay [1] (setting [6]) and in assay [2] (setting [7]) was 50 to 100% each time. The YFM rating result in assay [3] is reported as “A (80–100)”.

As to `COc1c(F)cc(NC(=O)[C@H]2[C@H](c3ccc(F)c(Cl)c3)C2(Cl)Cl)cc1C(=O)NCCC(F)(F)F` (relative stereo) [F2059, trans-5-(2,2-Dichloro-3-(3-chloro-4-fluorophenyl)cyclopropane-1-carboxamido)-3-fluoro-2-methoxy-N-(3,3,3-trifluoropropyl)benzamide], the pest or weed control at 50 µg/cm2 in assay [1] (setting [6]) and in assay [2] (setting [7]) was 50 to 100% throughout. The YFM rating result in assay [3] is reported as “A (80–100)”.

Turning to `CC1(C(=O)Nc2c(F)ccc(NC(=O)c3cc(NC(=O)[C@H]4[C@H](c5ccc(F)c(C(F)(F)F)c5)C4(Cl)Cl)ccc3Cl)c2F)CCCO1` (stereo partly drawn) [F1809, N-(3-(2-Chloro-5-((1R,3R)-2,2-dichloro-3-(4-fluoro-3-(trifluoromethyl)phenyl)cyclopropane-1-carboxamido)benzamido)-2,6-difluorophenyl)-2-methyltetrahydrofuran-2-carboxamide], the pest or weed control at 50 µg/cm2 in assay [1] (setting [6]) and in assay [2] (setting [7]) was 50 to 100% throughout. In assay [3], the YFM rating entry is given as “A (80–100)”.

Turning to `O=C(NNCC1CC1)c1cc(NC(=O)[C@H]2[C@H](c3cc(Cl)cc(Cl)c3)C2(Cl)Cl)ccc1Cl` (relative stereo) [F2549, trans-2,2-Dichloro-N-(4-chloro-3-(2-(cyclopropylmethyl)hydrazine-1-carbonyl)phenyl)-3-(3,5-dichlorophenyl)cyclopropane-1-carboxamide], the pest or weed control at 50 µg/cm2 in assay [1] (setting [6]) and in assay [2] (setting [7]) was 50 to 100% throughout. Besides, in assay [3], the YFM rating result is “A (80–100)”.

As to `C=Cc1cc(F)ccc1NC(=O)c1cc(NC(=O)[C@H]2[C@H](c3cc(Cl)cc(Cl)c3)C2(Cl)Cl)ccc1Cl` (relative stereo) [F1312, trans-2-Chloro-5-(2,2-dichloro-3-(3,5-dichlorophenyl)cyclopropane-1-carboxamido)-N-(4-fluoro-2-vinylphenyl)benzamide], the pest or weed control at 50 µg/cm2 in assay [1] (setting [4]) and in assay [2] (setting [5]) was 50 to 100% throughout. Moreover, in assay [3], the YFM result is on record as “A (80–100)”.

For `O=C(Nc1ccc(F)c(NC(=O)C(F)F)c1F)c1cc(NC(=O)[C@H]2[C@H](c3cc(C(F)(F)F)cc(C(F)(F)F)c3)C2(Cl)Cl)ccc1Cl` (relative stereo) [F1802, trans-5-(3-(3,5-bis(Trifluoromethyl)phenyl)-2,2-dichlorocyclopropane-1-carboxamido)-2-chloro-N-(3-(2,2-difluoroacetamido)-2,4-difluorophenyl)benzamide], the pest or weed control at 50 µg/cm2 in assay [1] (setting [6]) and in assay [2] (setting [7]) was 50 to 100% throughout. The YFM rating entry in assay [3] is given as “A (80–100)”.

Take `C=C(F)c1c(F)ccc(NC(=O)c2cc(NC(=O)[C@H]3[C@H](c4cc(Cl)cc(Cl)c4)C3(Cl)Cl)ccc2Cl)c1F` (relative stereo) [F1321, trans-2-Chloro-5-(2,2-dichloro-3-(3,5-dichlorophenyl)cyclopropane-1-carboxamido)-N-(2,4-difluoro-3-(1-fluorovinyl)phenyl)benzamide]: the pest or weed control at 50 µg/cm2 in assay [1] (setting [4]) and in assay [2] (setting [5]) was 50 to 100% throughout. For the same compound, the YFM result in assay [3] was “A (80–100)”.

Source of the values: US20250228239A1, “MOLECULES HAVING PESTICIDAL UTILITY, AND INTERMEDIATES, COMPOSITIONS, AND PROCESSES, RELATED THERETO” (priority 2024, published 2025).
